Experimental data from patent US10285983B2, “3-(1H-pyrrolo[2,3-B]pyridin-2-yl)-1H-pyrazolo[3,4-B] pyridines and therapeutic uses thereof” (Samumed, LLC, priority 2015, dated 2019).

Tested on: Wnt activity (Sp5-Luc reporter, SW480 colon carcinoma cells)
Test: Wnt activity screening assay, Sp5-Luc reporter gene in SW480 cells
Format: cell-based
Conditions: Homo sapiens; for inhibition at 10 µM: given for EC50 >10 μM, read-out: percent inhibition at 10 μM; for EC50: overnight incubation
From the text: The screening assay for Wnt activity is described as follows. Reporter cell lines can be generated by stably transducing cancer cell lines (e.g., colon cancer) or primary cells (e.g., IEC-6 intestinal cells) with a lentiviral construct that includes a Wnt-responsive promoter driving expression of the firefly luciferase gene.
SW480 colon carcinoma cells were transduced with a lentiviral vector expressing luciferase with a human Sp5 promoter consisting of a sequence of eight TCF/LEF binding sites. SW480 cells stably expressing the Sp5-Luc reporter gene and a hygromycin resistance gene were selected by treatment with 150 μg/mL of hygromycin for 7 days. These stably transduced SW480 cells were expanded in cell culture and used for all further screening activities. Each compound was dissolved in DMSO as a 10 mM stock and used to prepare compound source plates. Serial dilution (1:3, 10-point dose-response curves starting from 10 μM) and compound transfer was performed using the ECHO 550 (Labcyte, Sunnyvale, Calif.) into 384-well white solid bottom assay plates (Greiner Bio-One) with appropriate DMSO backfill for a final DMSO concentration of 0.1%. For Sp5-Luc reporter gene assays, the cells were plated at 4,000 cells/well in 384-well plates with medium containing 1% fetal bovine serum and incubated overnight at 37° C. and 5% CO2. Following incubation, 20 μl of BrightGlo luminescence reagent (Promega) was added to each well of the 384-well assay plates. The plates were placed on an orbital shaker for 2 min and then luminescence was quantified using the Envision (Perkin Elmer) plate reader. Readings were normalized to DMSO only treated cells, and normalized activities were utilized for EC50 calculations using the dose-response log (inhibitor) vs. response—variable slope (four parameters) nonlinear regression feature available in GraphPad Prism 5.0 (or Dotmatics). For EC50 of >10 μM, the percent inhibition at 10 μM is provided.

O=C(Nc1cncc(-c2cnc3[nH]nc(-c4cc5cccnc5[nH]4)c3c2)c1)C1CCCC1 [Compound 274, N-(5-(3-(1H-Pyrrolo[2,3-b]pyridin-2-yl)-1H-pyrazolo[3,4-b]pyridin-5-yl)pyridin-3-yl)cyclopentanecarboxamide]
inhibition at 10 µM: 40.3% | EC50: > 10 µM

c1cncc(-c2cnc3[nH]nc(-c4cc5c(-c6cccnc6)ccnc5[nH]4)c3c2)c1 [Compound 88, 5-(Pyridin-3-yl)-3-(4-(pyridin-3-yl)-1H-pyrrolo[2,3-b]pyridin-2-yl)-1H-pyrazolo[3,4-b]pyridine]
inhibition at 10 µM: 17% | EC50: > 10 µM

O=C(Nc1cncc(-c2cnc3[nH]nc(-c4cc5c(-c6ccccc6F)ccnc5[nH]4)c3c2)c1)C1CCCC1 [Compound 78, N-(5-(3-(4-(2-Fluorophenyl)-1H-pyrrolo[2,3-b]pyridin-2-yl)-1H-pyrazolo [3,4-b]pyridin-5-yl)pyridin-3-yl)cyclopentanecarboxamide]
inhibition at 10 µM: 17% | EC50: > 10 µM

CC(C)C(=O)Nc1cncc(-c2cnc3[nH]nc(-c4cc5c(-c6ccccc6F)ccnc5[nH]4)c3c2)c1 [Compound 65, N-(5-(3-(4-(2-Fluorophenyl)-1H-pyrrolo[2,3-b]pyridin-2-yl)-1H-pyrazolo [3,4-b]pyridin-5-yl)pyridin-3-yl)isobutyramide]
inhibition at 10 µM: 30.8% | EC50: > 10 µM

c1cc(N2CCCCC2)c2cc(-c3n[nH]c4ncc(-c5cncc(CN6CCCC6)c5)cc34)[nH]c2n1 [Compound 182, 3-(4-(Piperidin-1-yl)-1H-pyrrolo[2,3-b]pyridin-2-yl)-5-(5-(pyrrolidin-1-ylmethyl)pyridin-3-yl)-1H-pyrazolo[3,4-b]pyridine]
inhibition at 10 µM: 7.1% | EC50: > 10 µM

c1ccc(-c2cnc3[nH]nc(-c4cc5c(-c6ccncc6)ccnc5[nH]4)c3c2)nc1 [Compound 140, 5-(Pyridin-2-yl)-3-(4-(pyridin-4-yl)-1H-pyrrolo[2,3-b]pyridin-2-yl)-1H-pyrazolo[3,4-b]pyridine]
inhibition at 10 µM: 12.3% | EC50: > 10 µM

CN1CCN(c2ccnc3[nH]c(-c4n[nH]c5ncc(-c6cncc(NC(=O)C7CCCCC7)c6)cc45)cc23)CC1 [Compound 247, N-(5-(3-(4-(4-Methylpiperazin-1-yl)-1H-pyrrolo[2,3-b]pyridin-2-yl)-1H-pyrazolo[3,4-b]pyridin-5-yl)pyridin-3-yl)cyclohexanecarboxamide]
inhibition at 10 µM: 6.4% | EC50: > 10 µM

Fc1cccc(-c2ccnc3[nH]c(-c4n[nH]c5ncc(-c6ccncc6)cc45)cc23)c1 [Compound 18, 3-(4-(3-Fluorophenyl)-1H-pyrrolo[2,3-b]pyridin-2-yl)-5-(pyridin-4-yl)-1H-pyrazolo[3,4-b]pyridine]
inhibition at 10 µM: 11.7% | EC50: > 10 µM

O=C(Nc1cncc(-c2cnc3[nH]nc(-c4cc5c(-c6cccc(F)c6)ccnc5[nH]4)c3c2)c1)c1ccccc1 [Compound 11, N-(5-(3-(4-(3-Fluorophenyl)-1H-pyrrolo[2,3-b]pyridin-2-yl)-1H-pyrazolo [3,4-b]pyridin-5-yl)pyridin-3-yl)benzamide]
inhibition at 10 µM: 10% | EC50: > 10 µM

CC(C)Nc1cncc(-c2cnc3[nH]nc(-c4cc5c(-c6cccnc6)ccnc5[nH]4)c3c2)c1 [Compound 96, N-Isopropyl-5-(3-(4-(pyridin-3-yl)-1H-pyrrolo[2,3-b]pyridin-2-yl)-1H-pyrazolo[3,4-b]pyridin-5-yl)pyridin-3-amine]
inhibition at 10 µM: 30.1% | EC50: > 10 µM

CC(C)(C)CC(=O)Nc1cncc(-c2cnc3[nH]nc(-c4cc5c(-c6ccccc6F)ccnc5[nH]4)c3c2)c1 [Compound 72, N-(5-(3-(4-(2-Fluorophenyl)-1H-pyrrolo[2,3-b]pyridin-2-yl)-1H-pyrazolo [3,4-b]pyridin-5-yl)pyridin-3-yl)-3,3-dimethylbutanamide]
inhibition at 10 µM: 16% | EC50: > 10 µM

c1cnc2[nH]c(-c3n[nH]c4ncc(-c5ccncc5)cc34)cc2c1 [Compound 270, 5-(Pyridin-4-yl)-3-(1H-pyrrolo[2,3-b]pyridin-2-yl)-1H-pyrazolo[3,4-b]pyridine]
inhibition at 10 µM: 0% | EC50: > 10 µM

O=C(Nc1cncc(-c2cnc3[nH]nc(-c4cc5c(-c6cccc(F)c6)ccnc5[nH]4)c3c2)c1)C1CC1 [Compound 20, N-(5-(3-(4-(3-Fluorophenyl)-1H-pyrrolo[2,3-b]pyridin-2-yl)-1H-pyrazolo [3,4-b]pyridin-5-yl)pyridin-3-yl)cyclopropanecarboxamide]
inhibition at 10 µM: 57.3% | EC50: > 10 µM

CC(C)(C)C(=O)Nc1cncc(-c2cnc3[nH]nc(-c4cc5c(N6CCCCC6)ccnc5[nH]4)c3c2)c1 [Compound 176, N-(5-(3-(4-(Piperidin-1-yl)-1H-pyrrolo[2,3-b]pyridin-2-yl)-1H-pyrazolo[3,4-b]pyridin-5-yl)pyridin-3-yl)pivalamide]
inhibition at 10 µM: 5% | EC50: > 10 µM

CC(C)(C)CC(=O)Nc1cncc(-c2cnc3[nH]nc(-c4cc5c(-c6ccoc6)ccnc5[nH]4)c3c2)c1 [Compound 324, N-(5-(3-(4-(Furan-3-yl)-1H-pyrrolo[2,3-b]pyridin-2-yl)-1H-pyrazolo[3,4-b]pyridin-5-yl)pyridin-3-yl)-3,3-dimethylbutanamide]
inhibition at 10 µM: 4.2% | EC50: > 10 µM

c1ncc(-c2cnc3[nH]nc(-c4cc5c(N6CCCCC6)ccnc5[nH]4)c3c2)cn1 [Compound 195, 3-(4-(Piperidin-1-yl)-1H-pyrrolo[2,3-b]pyridin-2-yl)-5-(pyrimidin-5-yl)-1H-pyrazolo[3,4-b]pyridine]
inhibition at 10 µM: 6.9% | EC50: > 10 µM

CCCC(=O)Nc1cncc(-c2cnc3[nH]nc(-c4cc5c(N6CCCCC6)ccnc5[nH]4)c3c2)c1 [Compound 185, N-(5-(3-(4-(Piperidin-1-yl)-1H-pyrrolo[2,3-b]pyridin-2-yl)-1H-pyrazolo[3,4-b]pyridin-5-yl)pyridin-3-yl)butyramide]
inhibition at 10 µM: 10.9% | EC50: > 10 µM

CN(C)CCOc1cncc(-c2cnc3[nH]nc(-c4cc5c(-c6cccnc6)ccnc5[nH]4)c3c2)c1 [Compound 563, N,N-dimethyl-2-((5-(3-(4-(pyridin-3-yl)-1H-pyrrolo[2,3-b]pyridin-2-yl)-1H-pyrazolo[3,4-b]pyridin-5-yl)pyridin-3-yl)oxy)ethan-1-amine]
inhibition at 10 µM: 20.6% | EC50: > 10 µM

CN(C)CCNc1cc(F)cc(-c2ccnc3[nH]c(-c4n[nH]c5ncc(-c6cncc(NC(=O)C7CCC7)c6)cc45)cc23)c1 [Compound 469, N-(5-(3-(4-(3-((2-(Dimethylamino)ethyl)amino)-5-fluorophenyl)-1H-pyrrolo [2,3-b]pyridin-2-yl)-1H-pyrazolo[3,4-b]pyridin-5-yl)pyridin-3-yl)cyclobutanecarboxamide]
inhibition at 10 µM: 47.5% | EC50: > 10 µM

O=C(Nc1cncc(-c2cnc3[nH]nc(-c4cc5c(-c6cccs6)ccnc5[nH]4)c3c2)c1)C1CC1 [Compound 356, N-(5-(3-(4-(Thiophen-2-yl)-1H-pyrrolo[2,3-b]pyridin-2-yl)-1H-pyrazolo[3,4-b]pyridin-5-yl)pyridin-3-yl)cyclopropanecarboxamide]
EC50: 6.37 µM

O=C(Nc1cncc(-c2cnc3[nH]nc(-c4cc5c(-c6ccncc6)ccnc5[nH]4)c3c2)c1)c1ccccc1 [Compound 123, N-(5-(3-(4-(Pyridin-4-yl)-1H-pyrrolo[2,3-b]pyridin-2-yl)-1H-pyrazolo[3,4-b]pyridin-5-yl)pyridin-3-yl)benzamide]
inhibition at 10 µM: 5.2% | EC50: > 10 µM

CN(C)CCNc1cc(F)cc(-c2ccnc3[nH]c(-c4n[nH]c5ncc(-c6cncc(NC(=O)C(C)(C)C)c6)cc45)cc23)c1 [Compound 456, N-(5-(3-(4-(3-((2-(Dimethylamino)ethyl)amino)-5-fluorophenyl)-1H-pyrrolo [2,3-b]pyridin-2-yl)-1H-pyrazolo[3,4-b]pyridin-5-yl)pyridin-3-yl)pivalamide]
inhibition at 10 µM: 42.4% | EC50: > 10 µM

Fc1ccc(-c2ccnc3[nH]c(-c4n[nH]c5ncc(-c6cncnc6)cc45)cc23)cc1 [Compound 55, 3-(4-(4-Fluorophenyl)-1H-pyrrolo[2,3-b]pyridin-2-yl)-5-(pyrimidin-5-yl)-1H-pyrazolo[3,4-b]pyridine]
inhibition at 10 µM: 13.6% | EC50: > 10 µM

c1cc(-c2cnc3[nH]nc(-c4cc5c(-c6ccncc6)ccnc5[nH]4)c3c2)ccn1 [Compound 130, 5-(Pyridin-4-yl)-3-(4-(pyridin-4-yl)-1H-pyrrolo[2,3-b]pyridin-2-yl)-1H-pyrazolo[3,4-b]pyridine]
inhibition at 10 µM: 6.3% | EC50: > 10 µM

Fc1cccc(-c2ccnc3[nH]c(-c4n[nH]c5ncc(-c6cncc(OCc7ccccc7)c6)cc45)cc23)c1 [Compound 518, 5-(5-(Benzyloxy)pyridin-3-yl)-3-(4-(3-fluorophenyl)-1H-pyrrolo[2,3-b]pyridin-2-yl)-1H-pyrazolo[3,4-b]pyridine]
inhibition at 10 µM: 0% | EC50: > 10 µM
